Measured values reported in patent publication US10864201B2, “Heteroaromatic compounds as Vanin inhibitors” (Boehringer Ingelheim International GmbH, priority 2018, dated 2020).

Key:
[1] = target: FLAG-tagged Vanin-1 (AA 22-493, T26I) (Homo sapiens (Human), UniProt O95497, T26I); test: Vanin-1 enzymatic assay; assay type: biochemical; conditions: formation of pantothenic acid from D-pantethine (3 μM), RapidFire MS; geometric mean in case of multiple measurements; read-out: VNN 1 IC50
Protocol: The test compounds are dissolved in 100% DMSO at a concentration of 10 mM and in a first step diluted in DMSO to a concentration of 5 mM, followed by serial dilution steps in 100% DMSO. Dilution factor and number of dilution steps may vary according to needs. Typically 8 different concentrations by 1:5 dilutions are prepared, a further intermediate dilutions of the substances is carried out with assay buffer resulting in 1% final DMSO concentration in the assay.
0.1 nM of FLAG-tagged Vanin-1 (AA 22-493, T26I, produced internally) and test compounds are incubated at room temperature for 20 minutes in assay buffer (1 mM DTT, 0.0025% Brij-35, 50 mM HEPES, pH7.5). D-Pantethine (Sigma, Cat #P2125-5G) in assay buffer is added (final concentration 3 μM) and incubated for additional 30 minutes at room temperature. Total assay volume typically is 40 μl but might be adjusted according to needs. Reaction is stopped by adding equal volume of stop solution as the reaction mixture to reach 100 nM HD-pantothenic acid (as an internal standard) and 1% TFA. Assay plates are centrifuged for 2 minutes and the formation of pantothenic acid is detected by RapidFire Mass Spectrometry (mobile phase A: 0.1% formic acid and 0.01% trifluoroacetic acid in water; mobile phase B: 47.5% acetonitrile, 47.5% methanol, 0.1% formic acid and 0.01% trifluoroacetic acid in water) using a C18, 12 μL cartridge (Agilent Cat #G9205A).
The values given in Table I result from measurements of one or more samples. In case of multiple measurements the geometric mean values are given.

Pantetheinase (vanin) = test: Human Whole Blood assay; assay type: cell-based; conditions: formation of pantothenic acid after pantethine supplementation, RapidFire MS, read-out: HWB IC50
Protocol: Human Whole Blood assay: Pantetheinase (vanin) converts panteheine into pantothenic acid and cysteamine. Accordingly, in the described protocol vanin activity is quantified by formation of pantothenic acid after pantetheine supplementation via pantethine. The assay is applicable to identify vanin inhibitors. Compound stocks were dissolved in DMSO at 10 mM. Further dilutions were performed in RPMI 1640 medium (Gibco, #A-10491-01) and final concentrations in the assay were 0.032 nM-500 nM.
Human blood was drawn into a blood bag (1% heparin, 50 I.E./mL). Blood was aliquoted into cavities of 96-deep-well plates at 290 μL and mixed with 10 μL compound solution or vehicle (30 sec at 1400 rpm on a shaker). Equilibration followed at room temperature, 250 rpm and for 30 min. The assay was started by adding 10 μL of substrate solution (20 μM pantethine in 1 mM DTT, 0.0025% Brij-35, 50 mM HEPES, pH7.5) to each well, except for some blank wells which received […] substrate buffer (1 mM DTT, 0.0025% Brij-35, 50 mM HEPES, pH7.5) only. Samples were thoroughly shaken (30 sec, 1400 rpm) and reaction was allowed to take place at room temperature, 250 rpm and for 5 min. The reaction was stopped by addition of a vanin tool inhibitor in excess (BI-1 total conc. 10 μM). Centrifugation of the plate followed at 4° C., 665 G for 10 min. Then the blood plasma samples (100 μL) were transferred into another 96-deep-well plate and proteins were precipitated (5 min on ice) by adding 100 μL of ice cold precipitation solution (1 μM labelled pantothenic acid (di-β-alanine-13C6,15N2 calcium salt, Sigma, #705837) in acetonitrile). Afterwards the plate was centrifuged (4° C., 3220 G, 10 min) and supernatants (50 μL) were collected into another 96-deep-well plate and mixed (10 sec, 1400 rpm) with 150 μL ice cold formic acid (0.1%, Carl Roth GmbH+Co.KG, #CP03.1). The formation of pantothenic acid is detected by RapidFire Mass Spectrometry. A TripleQuad 6500+ (ABSciex, Germany) was equipped with an LC-1290 system, a RapidFire autosampler (Agilent, Germany) and a C18 cartridge Type C 12 μL (Agilent Cat #G9526-80000). Mobile phase A was consisting of 0.09% formic acid and 0.01% trifluoroacetic acid in water and mobile phase B of 0.09% formic acid and 0.01% trifluoroacetic acid in acetonitrile/methanol/water=47.5/47.5/5.

Chain of FLAG-tagged Vanin-1 (AA 22-493, T26I) (O95497 22-493 T26I): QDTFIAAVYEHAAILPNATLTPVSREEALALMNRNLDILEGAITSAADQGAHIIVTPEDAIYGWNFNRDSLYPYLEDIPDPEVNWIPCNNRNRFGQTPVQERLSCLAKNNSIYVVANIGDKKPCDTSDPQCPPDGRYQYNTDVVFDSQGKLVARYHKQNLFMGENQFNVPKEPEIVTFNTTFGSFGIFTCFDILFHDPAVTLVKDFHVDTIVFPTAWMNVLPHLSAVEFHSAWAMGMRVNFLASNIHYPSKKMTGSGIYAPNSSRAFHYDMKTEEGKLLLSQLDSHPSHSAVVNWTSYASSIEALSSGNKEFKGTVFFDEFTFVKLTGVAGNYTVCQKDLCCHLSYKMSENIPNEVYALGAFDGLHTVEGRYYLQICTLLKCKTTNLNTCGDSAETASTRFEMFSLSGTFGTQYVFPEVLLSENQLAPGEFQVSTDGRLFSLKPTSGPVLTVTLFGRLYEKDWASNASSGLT

SMILES | IC50 [1] [nM] | IC50 (Pantetheinase (vanin)) [nM]
CN(c1ncccn1)[C@H]1CCN(C(=O)c2cnc3c(c2)CC(C)(C)N3)C1 [Example 3.1, N-[(3S)-1-{2,2-Dimethyl-1H,2H,3H-pyrrolo[2,3-b]pyridine-5-carbonyl}pyrrolidin-3-yl]-N-methylpyrimidin-2-amine] | 2.3 | 38
C[C@]1(c2ccc(Cl)cc2)Cc2cc(C(=O)N3CC[C@H](N4CCOC4=O)C3)cnc2N1 [Example 8.2] | 0.1 | 2.6
CN(c1ncccn1)[C@H]1CCN(C(=O)c2cnc3c(c2)C[C@](C)(c2ccc(F)cc2)N3)C1 [Example 5.5] | 0.2 | 17.2
CC(=O)N(C)[C@H]1CCN(C(=O)c2cnc3c(c2)CC(C)(c2ccc(Cl)cc2)N3)C1 (mixture of isomers) [Example 8.1, N-[(3S)-1-[2-(4-Chlorophenyl)-2-methyl-1H,2H,3H-pyrrolo[2,3-b]pyridine-5-carbonyl]pyrrolidin-3-yl]-N-methylacetamide] | 0.2 | 4.3
CC(=O)N(C)[C@H]1CCN(C(=O)c2cnc3c(c2)C[C@](C)(c2ccccc2)N3)C1 [Example 9.3] | 0.2 | 2.1
C[C@]1(c2ccc(Cl)cc2)Cc2cc(C(=O)N3CC[C@H](N4CCCC4=O)C3)cnc2N1 [Example 8.3] | 0.1 | 3.8
CC1(C)Cc2cc(C(=O)N3CC[C@H](N4CCCC4=O)C3)cnc2N1 [Example 1.2] | 1.5 | 11.5
CC(=O)N(C)[C@H]1CCN(C(=O)c2cnc3c(c2)C[C@@](C)(c2cccc(Cl)c2)N3)C1 [Example 7.3] | 18.9 | 424
C[C@]1(c2ccc(F)cc2)Cc2cc(C(=O)N3CCC4(CCOCC4)C3)cnc2N1 [Example 5.1, 2-[(2R)-2-(4-Fluorophenyl)-2-methyl-1H,2H,3H-pyrrolo[2,3-b]pyridine-5-carbonyl]-8-oxa-2-azaspiro[4.5]decane] | 0.4 | 3.6
C[C@]1(c2ccc(F)cc2)Cc2cc(C(=O)N3CC[C@H](N4CCCC4=O)C3)cnc2N1 [Example 5.3] | 0.1 | 1.5
CC1(C)CCc2cc(C(=O)N3CC4(CCOCC4)C3)cnc2N1 [Example 11.2] | 0.3 | 4.5

Next, values leading:

IC50 [1] [nM] | IC50 (Pantetheinase (vanin)) [nM] | SMILES
0.3 | 8.2 | CC(=O)N(C)[C@H]1CCN(C(=O)c2cnc3c(c2)CCC(C)(c2ccccc2)N3)C1 (some centres unmarked) [Example 12.2]
1.1 | 9.5 | CN(C(=O)C1(C#N)CC1)[C@H]1CCN(C(=O)c2cnc3c(c2)CC(C)(C)N3)C1 [Example 2.2]
0.6 | 10.6 | CN(C(=O)C1CCC1)[C@H]1CCN(C(=O)c2cnc3c(c2)CCC(C)(C)N3)C1 [Example 11.10]
0.9 | 2.5 | CN(C(=O)C1CCC1)[C@H]1CCN(C(=O)c2cnc3c(c2)CC(C)(C)N3)C1 [Example 2.1, N-[(3S)-1-{2,2-Dimethyl-1H,2H,3H-pyrrolo[2,3-b]pyridine-5-carbonyl}pyrrolidin-3-yl]-N-methylcyclobutanecarboxamide]
0.5 | 6.9 | CN(C(=O)C1CC(F)(F)C1)[C@H]1CCN(C(=O)c2cnc3c(c2)CCC(C)(C)N3)C1 [Example 11.11]
0.5 | 12.6 | CC(=O)N(C)[C@H]1CCN(C(=O)c2cnc3c(c2)CCC(C)(C)N3)C1 [Example 11.6]
0.1 | 1.4 | CC(=O)N(C)[C@H]1CCN(C(=O)c2cnc3c(c2)C[C@](C)(c2cccc(F)c2)N3)C1 [Example 4.3]
0.6 | 2.8 | CN(C(=O)C1CC(F)(F)C1)[C@H]1CCN(C(=O)c2cnc3c(c2)CC(C)(C)N3)C1 [Example 2.4]
